{
  "source": "paper PMC9798004",
  "about": "(Frontiers in Psychiatry, 2022)",
  "molecules": {"B1": {"name": "CXCL16: control agonist (protein, UniProt Q9H2A7 30-254, looked up)", "C-X-C motif chemokine 16": "NEGSVTGSCYCGKRISSDSPPSVQFMNRLRKHLRAYHRCLYYTRFQLLSWSVCGGNKDPWVQELMSCLDLKECGHAYSGIVAHQKHLLPTSPPISQASEGASSDIHTPAQMLLSTLQSTQRPTLPVGSLSSDKELTRPNETTIHTAGHSLAAGPEAGENQKQPEKNAGPTARTSATVPVLCLLAIIFILTAALSYVLCKRRRGQSPQSSPDLPVHYIPVAPDSNT"}},
  "key": {"EBI2": {"biological_target": "T1, EBI2 (Homo sapiens, UniProt P32249)", "T1 construct": "purchased Eurofins DiscoverX (PathHunter gpcrMAX)", "T1 sequence (P32249 whole entry)": "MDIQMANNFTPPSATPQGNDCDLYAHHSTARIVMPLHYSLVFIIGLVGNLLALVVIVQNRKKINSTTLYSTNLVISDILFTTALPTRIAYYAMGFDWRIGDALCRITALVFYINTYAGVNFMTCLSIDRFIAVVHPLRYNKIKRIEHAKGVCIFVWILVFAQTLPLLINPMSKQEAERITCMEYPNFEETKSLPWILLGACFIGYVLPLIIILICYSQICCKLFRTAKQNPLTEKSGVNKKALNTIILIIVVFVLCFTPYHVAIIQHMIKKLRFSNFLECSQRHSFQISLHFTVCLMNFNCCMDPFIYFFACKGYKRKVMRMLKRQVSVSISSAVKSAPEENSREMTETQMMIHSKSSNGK", "test": "PathHunter β-arrestin assay", "format": "cell-based", "details": "screen, control agonist; CHO, RT, 2HR"}, "GPR1": {"biological_target": "T2, GPR1 (Homo sapiens, UniProt P46091)", "T2 construct": "purchased Eurofins DiscoverX (PathHunter gpcrMAX)", "T2 sequence (P46091 1-355)": "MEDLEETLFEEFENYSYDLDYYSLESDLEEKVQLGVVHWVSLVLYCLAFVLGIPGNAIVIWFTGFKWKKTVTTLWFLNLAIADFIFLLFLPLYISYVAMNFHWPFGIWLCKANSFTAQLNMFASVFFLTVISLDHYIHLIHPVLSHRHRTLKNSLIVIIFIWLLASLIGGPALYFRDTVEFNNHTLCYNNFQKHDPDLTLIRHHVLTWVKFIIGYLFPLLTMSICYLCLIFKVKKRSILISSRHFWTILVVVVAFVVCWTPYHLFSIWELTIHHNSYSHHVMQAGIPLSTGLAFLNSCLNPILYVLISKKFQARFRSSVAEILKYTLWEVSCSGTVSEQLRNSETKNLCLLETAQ", "test": "PathHunter β-arrestin assay", "format": "cell-based", "details": "screen, control agonist; CHO, 37C, 2HR"}, "EDG7": {"biological_target": "T3, EDG7 (Homo sapiens, UniProt Q9UBY5)", "T3 construct": "purchased Eurofins DiscoverX (PathHunter gpcrMAX)", "T3 sequence (Q9UBY5 whole entry)": "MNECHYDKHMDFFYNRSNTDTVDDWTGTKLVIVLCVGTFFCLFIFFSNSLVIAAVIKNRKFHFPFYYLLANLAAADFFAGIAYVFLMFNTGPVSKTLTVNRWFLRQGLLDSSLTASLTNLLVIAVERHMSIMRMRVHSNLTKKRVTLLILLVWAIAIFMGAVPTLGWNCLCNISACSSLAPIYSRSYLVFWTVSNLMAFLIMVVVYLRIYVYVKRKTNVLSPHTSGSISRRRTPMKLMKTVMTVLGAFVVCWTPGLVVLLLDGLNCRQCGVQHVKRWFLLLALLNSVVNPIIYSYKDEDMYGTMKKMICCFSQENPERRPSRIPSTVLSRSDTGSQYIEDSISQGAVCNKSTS", "test": "PathHunter β-arrestin assay", "format": "cell-based", "details": "screen, control agonist; CHO, RT, 3HR"}, "EDG4": {"biological_target": "T4, EDG4 (Homo sapiens, UniProt Q9HBW0)", "T4 construct": "purchased Eurofins DiscoverX (PathHunter gpcrMAX)", "T4 sequence (Q9HBW0 whole entry)": "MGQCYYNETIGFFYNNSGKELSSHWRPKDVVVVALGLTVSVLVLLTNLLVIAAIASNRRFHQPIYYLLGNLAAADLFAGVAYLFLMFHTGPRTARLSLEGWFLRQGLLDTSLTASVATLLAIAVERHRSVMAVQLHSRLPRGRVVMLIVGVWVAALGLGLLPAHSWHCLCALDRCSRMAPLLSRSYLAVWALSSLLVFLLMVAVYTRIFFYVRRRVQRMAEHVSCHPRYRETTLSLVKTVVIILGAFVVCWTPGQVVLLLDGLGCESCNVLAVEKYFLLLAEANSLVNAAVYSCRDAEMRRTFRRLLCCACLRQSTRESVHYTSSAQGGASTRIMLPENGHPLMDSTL", "test": "PathHunter β-arrestin assay", "format": "cell-based", "details": "screen, control agonist; CHO, RT, 3HR"}, "GPR92": {"biological_target": "T5, GPR92 (Homo sapiens, UniProt Q9H1C0)", "T5 construct": "purchased Eurofins DiscoverX (PathHunter gpcrMAX)", "test": "PathHunter β-arrestin assay", "format": "cell-based", "details": "screen, control agonist; CHO, RT, 3HR"}, "GPR103": {"biological_target": "T6, GPR103 (Homo sapiens, UniProt Q96P65)", "T6 construct": "purchased Eurofins DiscoverX (PathHunter gpcrMAX)", "T6 sequence (Q96P65 1-431)": "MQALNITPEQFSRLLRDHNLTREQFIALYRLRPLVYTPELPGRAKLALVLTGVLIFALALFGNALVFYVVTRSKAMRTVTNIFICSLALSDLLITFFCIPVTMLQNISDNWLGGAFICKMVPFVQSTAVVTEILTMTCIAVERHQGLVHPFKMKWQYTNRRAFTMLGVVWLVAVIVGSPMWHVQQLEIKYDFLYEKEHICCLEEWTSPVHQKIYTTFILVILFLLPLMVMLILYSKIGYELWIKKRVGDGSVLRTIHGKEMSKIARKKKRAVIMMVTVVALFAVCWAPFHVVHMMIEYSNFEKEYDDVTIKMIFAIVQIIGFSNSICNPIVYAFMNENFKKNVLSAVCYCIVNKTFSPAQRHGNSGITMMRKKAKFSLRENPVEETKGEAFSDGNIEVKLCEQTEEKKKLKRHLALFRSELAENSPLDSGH", "test": "PathHunter β-arrestin assay", "format": "cell-based", "details": "screen, control agonist; CHO, RT, 2HR"}, "DRD2L": {"biological_target": "DRD2L (Homo sapiens, UniProt P14416)", "sequence (P14416 whole entry)": "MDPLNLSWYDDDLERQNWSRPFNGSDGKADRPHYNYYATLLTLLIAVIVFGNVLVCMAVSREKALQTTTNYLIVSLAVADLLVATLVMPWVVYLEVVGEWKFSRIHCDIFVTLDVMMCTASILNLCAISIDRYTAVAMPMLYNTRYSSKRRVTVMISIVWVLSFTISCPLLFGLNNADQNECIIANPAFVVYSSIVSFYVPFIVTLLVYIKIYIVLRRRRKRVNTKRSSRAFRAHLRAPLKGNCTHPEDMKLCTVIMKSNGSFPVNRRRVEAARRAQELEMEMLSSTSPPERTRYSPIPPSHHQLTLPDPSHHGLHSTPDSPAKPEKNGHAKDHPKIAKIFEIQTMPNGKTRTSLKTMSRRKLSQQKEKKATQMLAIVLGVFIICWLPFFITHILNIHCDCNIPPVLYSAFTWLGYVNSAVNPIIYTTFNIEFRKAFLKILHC", "test": "PathHunter β-arrestin assay", "format": "cell-based", "details": "control agonist"}, "DRD2S": {"biological_target": "DRD2S (Homo sapiens, UniProt P14416)", "sequence (P14416 1-414 isoform P14416-2)": "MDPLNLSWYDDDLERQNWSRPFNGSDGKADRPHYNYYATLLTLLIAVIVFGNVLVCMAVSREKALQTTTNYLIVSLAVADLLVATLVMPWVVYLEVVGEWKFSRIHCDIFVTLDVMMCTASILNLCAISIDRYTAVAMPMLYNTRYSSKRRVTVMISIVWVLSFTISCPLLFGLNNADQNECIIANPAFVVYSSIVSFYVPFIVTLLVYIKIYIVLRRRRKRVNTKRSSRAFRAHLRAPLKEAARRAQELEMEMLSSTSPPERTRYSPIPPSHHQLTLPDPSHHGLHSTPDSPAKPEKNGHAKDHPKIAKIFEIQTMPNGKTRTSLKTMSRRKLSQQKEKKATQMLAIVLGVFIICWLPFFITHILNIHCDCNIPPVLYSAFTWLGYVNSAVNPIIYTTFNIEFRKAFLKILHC", "details": "screen, control agonist; CHO, RT, 2HR"}, "ADRA1B": {"biological_target": "T7, ADRA1B (Homo sapiens, UniProt P35368)", "T7 construct": "purchased Eurofins DiscoverX (PathHunter gpcrMAX)", "T7 sequence (P35368 whole entry)": "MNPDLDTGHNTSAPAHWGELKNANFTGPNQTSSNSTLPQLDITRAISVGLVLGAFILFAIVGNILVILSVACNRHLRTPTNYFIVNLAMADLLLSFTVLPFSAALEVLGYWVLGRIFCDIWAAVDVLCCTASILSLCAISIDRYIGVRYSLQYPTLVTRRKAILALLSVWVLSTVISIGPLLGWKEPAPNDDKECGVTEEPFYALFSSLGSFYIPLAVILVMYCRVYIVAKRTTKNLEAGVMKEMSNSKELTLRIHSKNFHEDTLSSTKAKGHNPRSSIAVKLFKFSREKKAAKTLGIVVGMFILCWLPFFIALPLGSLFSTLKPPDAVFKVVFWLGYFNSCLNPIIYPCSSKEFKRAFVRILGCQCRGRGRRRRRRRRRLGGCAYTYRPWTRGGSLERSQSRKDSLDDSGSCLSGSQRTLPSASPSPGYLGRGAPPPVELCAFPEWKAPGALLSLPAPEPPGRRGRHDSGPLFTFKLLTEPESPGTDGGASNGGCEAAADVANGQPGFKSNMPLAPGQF", "test": "PathHunter β-arrestin assay", "format": "cell-based", "details": "screen, control agonist; CHO, 37C, 2HR"}, "FFAR1": {"biological_target": "T8, FFAR1 (Homo sapiens, UniProt O14842)", "T8 construct": "purchased Eurofins DiscoverX (PathHunter gpcrMAX)", "T8 sequence (O14842 whole entry)": "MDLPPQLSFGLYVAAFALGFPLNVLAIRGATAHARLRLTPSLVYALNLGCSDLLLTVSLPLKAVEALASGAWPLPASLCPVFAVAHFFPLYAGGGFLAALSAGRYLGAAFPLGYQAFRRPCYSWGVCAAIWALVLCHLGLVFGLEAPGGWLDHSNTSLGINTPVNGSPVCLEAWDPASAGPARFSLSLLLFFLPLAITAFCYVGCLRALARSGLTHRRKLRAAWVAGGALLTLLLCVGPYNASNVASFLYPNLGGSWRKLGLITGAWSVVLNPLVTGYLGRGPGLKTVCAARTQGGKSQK", "test": "PathHunter β-arrestin assay", "format": "cell-based", "details": "screen, control agonist; DLD1, 37C, 4HR"}, "GPR120": {"biological_target": "T9, GPR120 (Homo sapiens, UniProt Q5NUL3)", "T9 construct": "purchased Eurofins DiscoverX (PathHunter gpcrMAX)", "T9 sequence (Q5NUL3 whole entry)": "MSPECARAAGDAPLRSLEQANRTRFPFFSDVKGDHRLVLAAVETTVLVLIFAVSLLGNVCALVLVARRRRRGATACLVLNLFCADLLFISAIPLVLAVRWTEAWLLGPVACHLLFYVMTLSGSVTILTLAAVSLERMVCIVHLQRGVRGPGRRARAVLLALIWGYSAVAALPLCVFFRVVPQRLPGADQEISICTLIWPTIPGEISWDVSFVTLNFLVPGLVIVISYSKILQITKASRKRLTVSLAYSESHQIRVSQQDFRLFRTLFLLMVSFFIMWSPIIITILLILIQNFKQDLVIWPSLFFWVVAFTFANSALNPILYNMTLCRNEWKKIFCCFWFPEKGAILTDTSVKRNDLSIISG", "test": "PathHunter β-arrestin assay", "format": "cell-based", "details": "screen, control agonist; CHO, 37C, 2HR"}, "FPRL1": {"biological_target": "T10, FPRL1 (Homo sapiens, UniProt P25090)", "T10 construct": "purchased Eurofins DiscoverX (PathHunter gpcrMAX)", "T10 sequence (P25090 whole entry)": "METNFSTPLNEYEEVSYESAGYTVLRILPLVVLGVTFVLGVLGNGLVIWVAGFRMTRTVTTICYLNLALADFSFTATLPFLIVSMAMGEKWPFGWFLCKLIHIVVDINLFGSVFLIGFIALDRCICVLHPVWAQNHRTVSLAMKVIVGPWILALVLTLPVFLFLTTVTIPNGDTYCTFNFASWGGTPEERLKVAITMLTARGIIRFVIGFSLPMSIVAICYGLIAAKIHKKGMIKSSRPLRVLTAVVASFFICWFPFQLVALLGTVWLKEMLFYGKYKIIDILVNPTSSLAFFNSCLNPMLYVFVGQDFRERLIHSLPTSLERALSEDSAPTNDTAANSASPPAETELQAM", "test": "PathHunter β-arrestin assay", "format": "cell-based", "details": "screen, control agonist; CHO, 37C, 2HR"}, "FPR1": {"biological_target": "T11, FPR1 (Homo sapiens, UniProt P21462)", "T11 sequence (P21462 1-350)": "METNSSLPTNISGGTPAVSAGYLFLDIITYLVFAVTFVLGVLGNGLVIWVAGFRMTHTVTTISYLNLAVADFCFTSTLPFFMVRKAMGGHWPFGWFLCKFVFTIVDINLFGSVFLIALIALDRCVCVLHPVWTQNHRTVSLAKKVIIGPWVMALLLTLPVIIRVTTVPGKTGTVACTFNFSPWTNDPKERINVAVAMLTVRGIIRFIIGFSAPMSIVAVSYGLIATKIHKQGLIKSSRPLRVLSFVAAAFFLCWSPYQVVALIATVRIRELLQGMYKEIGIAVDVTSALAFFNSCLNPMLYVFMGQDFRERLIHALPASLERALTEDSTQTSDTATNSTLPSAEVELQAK", "test": "PathHunter β-arrestin assay", "format": "cell-based", "details": "control agonist"}, "GPR109B": {"biological_target": "T12, GPR109B (Homo sapiens, UniProt P49019)", "T12 construct": "purchased Eurofins DiscoverX (PathHunter gpcrMAX)", "test": "PathHunter β-arrestin assay", "format": "cell-based", "details": "screen, control agonist; CHO, 37C, 2HR"}, "EDG1": {"biological_target": "T13, EDG1 (Homo sapiens, UniProt P21453)", "T13 construct": "purchased Eurofins DiscoverX (PathHunter gpcrMAX)", "test": "PathHunter β-arrestin assay", "format": "cell-based", "details": "screen, control agonist; CHO, 37C, 2HR"}, "EDG6": {"biological_target": "T14, EDG6 (Homo sapiens, UniProt O95977)", "T14 construct": "purchased Eurofins DiscoverX (PathHunter gpcrMAX)", "T14 sequence (O95977 whole entry)": "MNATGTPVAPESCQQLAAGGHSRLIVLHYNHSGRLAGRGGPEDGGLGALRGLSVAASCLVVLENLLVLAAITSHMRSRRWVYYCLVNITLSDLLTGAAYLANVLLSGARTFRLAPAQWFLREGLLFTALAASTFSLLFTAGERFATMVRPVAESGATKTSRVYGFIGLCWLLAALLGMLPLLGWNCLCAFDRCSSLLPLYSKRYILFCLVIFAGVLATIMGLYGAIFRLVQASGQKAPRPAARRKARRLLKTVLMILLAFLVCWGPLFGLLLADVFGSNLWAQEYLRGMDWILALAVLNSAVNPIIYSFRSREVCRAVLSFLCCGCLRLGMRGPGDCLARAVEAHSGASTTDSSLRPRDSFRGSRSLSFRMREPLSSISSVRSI", "test": "PathHunter β-arrestin assay", "format": "cell-based", "details": "screen, control agonist; CHO, 37C, 4HR"}, "EDG5": {"biological_target": "T15, EDG5 (Homo sapiens, UniProt O95136)", "T15 construct": "purchased Eurofins DiscoverX (PathHunter gpcrMAX)", "T15 sequence (O95136 whole entry)": "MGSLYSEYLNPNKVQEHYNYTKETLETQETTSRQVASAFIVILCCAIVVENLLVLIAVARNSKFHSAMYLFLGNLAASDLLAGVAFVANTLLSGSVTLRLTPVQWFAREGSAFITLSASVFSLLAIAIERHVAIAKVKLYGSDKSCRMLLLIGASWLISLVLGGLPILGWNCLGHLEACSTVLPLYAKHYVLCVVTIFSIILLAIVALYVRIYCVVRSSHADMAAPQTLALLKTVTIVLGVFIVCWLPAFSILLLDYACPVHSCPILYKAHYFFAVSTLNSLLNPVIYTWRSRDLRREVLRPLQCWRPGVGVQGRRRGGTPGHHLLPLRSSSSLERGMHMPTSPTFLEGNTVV", "test": "PathHunter β-arrestin assay", "format": "cell-based", "details": "screen, control agonist; CHO, 37C, 2HR"}, "EDG3": {"biological_target": "T16, EDG3 (Homo sapiens, UniProt Q99500)", "T16 construct": "purchased Eurofins DiscoverX (PathHunter gpcrMAX)", "T16 sequence (Q99500 whole entry)": "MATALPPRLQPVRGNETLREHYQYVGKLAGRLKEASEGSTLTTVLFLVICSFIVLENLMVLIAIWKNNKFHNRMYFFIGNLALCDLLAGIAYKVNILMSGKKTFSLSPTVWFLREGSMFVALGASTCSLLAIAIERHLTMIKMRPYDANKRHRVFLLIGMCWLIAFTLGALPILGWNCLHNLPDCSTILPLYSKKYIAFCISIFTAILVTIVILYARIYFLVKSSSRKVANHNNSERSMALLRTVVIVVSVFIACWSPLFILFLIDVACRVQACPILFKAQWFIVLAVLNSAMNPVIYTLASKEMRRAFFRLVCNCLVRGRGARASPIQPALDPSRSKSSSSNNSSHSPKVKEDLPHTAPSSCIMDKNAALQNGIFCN", "test": "PathHunter β-arrestin assay", "format": "cell-based", "details": "screen, control agonist; CHO, 37C, 2HR"}, "CXCR6": {"biological_target": "T17, CXCR6 (Homo sapiens, UniProt O00574)", "T17 construct": "purchased Eurofins DiscoverX (PathHunter gpcrMAX)", "T17 sequence (O00574 whole entry)": "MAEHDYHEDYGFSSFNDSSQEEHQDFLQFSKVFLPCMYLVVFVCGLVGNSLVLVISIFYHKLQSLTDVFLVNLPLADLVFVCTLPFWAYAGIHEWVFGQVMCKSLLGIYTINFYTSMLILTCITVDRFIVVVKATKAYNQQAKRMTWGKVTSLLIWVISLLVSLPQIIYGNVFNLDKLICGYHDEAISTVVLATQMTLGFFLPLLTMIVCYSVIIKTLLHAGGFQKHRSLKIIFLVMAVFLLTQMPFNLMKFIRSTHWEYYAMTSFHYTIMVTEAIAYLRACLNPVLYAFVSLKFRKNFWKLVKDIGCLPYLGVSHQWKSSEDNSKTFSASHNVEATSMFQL", "test": "PathHunter β-arrestin assay", "format": "cell-based", "details": "screen, control agonist; HEK, 37C, 2HR"}, "[1]": {"details": "follow-up concentration-response assays"}},
  "data": [
    {"molecule": "C[C@H](CCCC(C)(C)O)[C@H]1CC[C@H]2[C@@H]3[C@H](O)C=C4C[C@@H](O)CC[C@]4(C)[C@H]3CC[C@]12C", "note": "[7a,25-Dihydroxycholesterol]", "values": [
      {"measurement": "EC80", "setting": "EBI2", "result": 23.3, "unit": "nM"}
    ]},
    {"molecule": "Chemerin: control agonist", "values": [
      {"measurement": "EC80", "setting": "GPR1", "result": 4.61, "unit": "nM"}
    ]},
    {"molecule": "CCCCCCCC/C=C\\CCCCCCCC(=O)OC[C@@H](O)COP(=O)(O)O", "note": "[Oleoyl LPA]", "values": [
      {"measurement": "EC80", "setting": "EDG7", "result": 3480, "unit": "nM"},
      {"measurement": "EC80", "setting": "EDG4", "result": 1960, "unit": "nM"},
      {"measurement": "EC80", "setting": "GPR92", "result": 4280, "unit": "nM"}
    ]},
    {"molecule": "QRFP-26", "values": [
      {"measurement": "EC80", "setting": "GPR103", "result": 14.2, "unit": "nM"}
    ]},
    {"molecule": "NCCc1ccc(O)c(O)c1", "note": "[Dopamine]", "values": [
      {"measurement": "EC80", "setting": "DRD2L; [1]", "result": 200, "unit": "nM"},
      {"measurement": "EC80", "setting": "DRD2L; screen, CHO, 37C, 2HR", "result": 100, "unit": "nM"},
      {"measurement": "EC80", "setting": "DRD2S", "result": 300, "unit": "nM"}
    ]},
    {"molecule": "CNC[C@H](O)c1cccc(O)c1", "note": "[Phenylephrine]", "values": [
      {"measurement": "EC80", "setting": "ADRA1B", "result": 133, "unit": "nM"}
    ]},
    {"molecule": "O=C(O)CCc1ccc(NCc2cccc(Oc3ccccc3)c2)cc1", "note": "[GW9508]", "values": [
      {"measurement": "EC80", "setting": "FFAR1", "result": 402, "unit": "nM"},
      {"measurement": "EC80", "setting": "GPR120", "result": 21500, "unit": "nM"}
    ]},
    {"molecule": "WKYMVm-NH2", "values": [
      {"measurement": "EC80", "setting": "FPRL1", "result": 3.91, "unit": "nM"},
      {"measurement": "EC80", "setting": "FPR1; [1]", "result": 8.52, "unit": "nM"},
      {"measurement": "EC80", "setting": "FPR1; screen, CHO, 37C, 2HR", "result": 8.52, "unit": "nM"}
    ]},
    {"molecule": "CCCCCC(O)CC(=O)O", "note": "(stereo not drawn) [3-Hydroxyoctanoic Acid]", "values": [
      {"measurement": "EC80", "setting": "GPR109B", "result": 904000, "unit": "nM"}
    ]},
    {"molecule": "CCCCCCCCCCCCC/C=C/[C@@H](O)[C@@H](N)COP(=O)(O)O", "note": "[S-1-P]", "values": [
      {"measurement": "EC80", "setting": "EDG1", "result": 117, "unit": "nM"},
      {"measurement": "EC80", "setting": "EDG6", "result": 180, "unit": "nM"},
      {"measurement": "EC80", "setting": "EDG5", "result": 119, "unit": "nM"},
      {"measurement": "EC80", "setting": "EDG3", "result": 194, "unit": "nM"}
    ]},
    {"molecule": "B1", "values": [
      {"measurement": "EC80", "setting": "CXCR6", "result": 1.39, "unit": "nM"}
    ]}
  ]
}
